A word on the MIC: it is the lowest concentration found to suppress growth.

Results on 28 compounds are retold here after patent US10858360B2, “Tricyclic gyrase inhibitors” (priority 2011, dated 2020).

One test deals with S. aureus ATCC 13709. The experiment in a line: MIC, S. aureus ATCC 13709 (Alamar Blue broth microdilution). The format is cell-based. As to conditions: Alamar Blue read after overnight incubation at 35° C.; for MIC: Staphylococcus aureus, ATCC13709, S. aureus; for MIC Sa: S. aureus. A general note: Alamar Blue is a resazurin reagent that responds to reducing activity.
A further test relates to E. coli ATCC 25922. The experiment in a line: MIC, E. coli ATCC 25922. It is filed as cell-based. To be noted: Alamar Blue read after overnight incubation at 35° C.; for MIC: Escherichia coli, ATCC25922, E. coli; for MIC Ec: E. coli.

Values after ≈ are worked out from the molar mass of the structure shown.

Take `CNc1cccc2c1[nH]c1nc(Oc3cncnc3)nc(N3C[C@H](NCC4CC4)C4(CC4)C3)c12` [3.12]: the MIC in the test on S. aureus ATCC 13709 amounted to 1 µg/mL (≈ 2.19 µM); in the test with E. coli ATCC 25922 it was 8 µg/mL (≈ 17.5 µM).

With `CNc1cc(F)cc2c1[nH]c1nc(Oc3cnc(NCC4CCCO4)nc3)nc(N3C[C@H](N)C4(CC4)C3)c12` (some centres unmarked) [4.406], the MIC is not above 0.5 µg/mL in the test on S. aureus ATCC 13709 and 1 µg/mL (≈ 1.92 µM) against E. coli ATCC 25922.

As for `CNc1cc(F)cc2c1[nH]c1nc(Oc3ccc(C#N)nc3)nc(N3CCC(N)C3)c12` (centres unmarked) [4.331], the “MIC Sa” value against S. aureus ATCC 13709 is not above 0.5 µg/mL. In addition, the “MIC Ec” value in the test on E. coli ATCC 25922 was not above 0.5 µg/mL.

`CNc1cc(F)cc2c1[nH]c1nc(Oc3cnc(C)nc3)nc(-c3cncc(N)c3)c12` [4.450]: the minimal inhibitory concentration (MIC) in the test with S. aureus ATCC 13709 was not above 0.5 µg/mL; against E. coli ATCC 25922 it was 2 µg/mL (≈ 4.8 µM).

Take `CNc1cc(F)cc2c1[nH]c1nc(Oc3ccc(C#N)nc3)nc(N3CC4(CCC4N)C3)c12` (centres unmarked) [4.333]: the “MIC Sa” value against S. aureus ATCC 13709 is not above 0.5 µg/mL. Moreover, in the test with E. coli ATCC 25922, the “MIC Ec” value was not above 0.5 µg/mL.

Take `CNc1cc(F)cc2c1[nH]c1nc(Oc3cnc(N)nc3)nc(N3CCC4CNC4C3)c12` (centres unmarked) [4.181]: the minimum inhibitory concentration (MIC) in the test on S. aureus ATCC 13709 was not above 0.5 µg/mL; against E. coli ATCC 25922 it was 8 µg/mL (≈ 18.4 µM).

On to `CNc1ccc(F)c2c1[nH]c1nc(Oc3cnc(N)nc3)nc(C3CC4C(N)C4C3)c12` (centres unmarked) [6.25], for which the minimum inhibitory concentration (MIC) with S. aureus ATCC 13709 and against E. coli ATCC 25922 was not above 0.5 µg/mL each time.

With `CNc1cccc2c1[nH]c1nc(Oc3cncc(C#N)c3)nc(N3CCC(CN)C3)c12` (centres unmarked) [3.57], the MIC was 1 µg/mL (≈ 2.41 µM) against S. aureus ATCC 13709 and 8 µg/mL (≈ 19.3 µM) with E. coli ATCC 25922.

As for `CNc1cc(F)cc2c1[nH]c1nc(Oc3ccc4c(c3)C(=O)NCC4)nc(N3CC4C[C@@H](N)C4C3)c12` (some centres unmarked) [4.302], the minimal inhibitory concentration (MIC) is not above 0.5 µg/mL against S. aureus ATCC 13709 and 2 µg/mL (≈ 4.1 µM) in the test with E. coli ATCC 25922.

For `COc1cccc2c1[nH]c1nc(Oc3cccc(C#N)c3)nc(N3CC4C(N)C4C3)c12` (centres unmarked) [2.12], the “MIC Sa” value against S. aureus ATCC 13709 amounted to 16 µg/mL (≈ 38.8 µM). Also, in the test with E. coli ATCC 25922, the “MIC Ec” value was more than 64 µg/mL.

Consider `CNc1ccc(C)c2c1[nH]c1nc(Sc3cnc4cccnc4c3)nc(N3CC4C(N)C4C3)c12` (centres unmarked) [1.58], for which the results for the minimal inhibitory concentration (MIC) in the test on S. aureus ATCC 13709 and in the test with E. coli ATCC 25922 were not above 0.5 µg/mL and 8 µg/mL (≈ 17.1 µM), respectively.

With `CNc1cc(F)cc2c1[nH]c1nc(Oc3cnc4c(c3)ncn4C)nc(N3CC4CC(N)C4C3)c12` (centres unmarked) [4.226], the “MIC Sa” value with S. aureus ATCC 13709 was not above 0.5 µg/mL. Besides, the “MIC Ec” value against E. coli ATCC 25922 was determined as 2 µg/mL (≈ 4.22 µM).

In the case of `CNc1cccc2c1[nH]c1nc(Sc3cnc4ccc[n+]([O-])c4c3)nc(N3CC(N)C4(CC4)C3)c12` (centres unmarked) [1.40], the MIC with S. aureus ATCC 13709 was not above 0.5 µg/mL; in the test with E. coli ATCC 25922, 1 µg/mL (≈ 2.06 µM).

`CCNc1cccc2c1[nH]c1nc(Sc3cnc4ccc[n+]([O-])c4c3)nc(N3CC4C(N)C4C3)c12` (centres unmarked) [1.10]: the minimum inhibitory concentration (MIC) in the test with S. aureus ATCC 13709 was not above 0.5 µg/mL; against E. coli ATCC 25922, 4 µg/mL (≈ 8.25 µM).

For `CNc1cc(F)cc2c1[nH]c1nc(Oc3cncnc3)nc(N3CC(C)C(CN)C3)c12` (centres unmarked) [4.023], the “MIC Sa” value in the test with S. aureus ATCC 13709 is not above 0.5 µg/mL. Further, in the test with E. coli ATCC 25922, the “MIC Ec” value is 1 µg/mL (≈ 2.37 µM).

Regarding `CNc1cc(F)cc2c1[nH]c1nc(Oc3ccc4oc(C)nc4c3)nc(N3C[C@H]4CC[C@@H](N)[C@H]4C3)c12` [4.336], the MIC against S. aureus ATCC 13709 was not above 0.5 µg/mL; in the test on E. coli ATCC 25922, 1 µg/mL (≈ 2.05 µM).

As for `CNc1ncnc2c1[nH]c1nc(Oc3cncc(F)c3)nc(N3CC4C(N)C4C3)c12` (centres unmarked) [7.04], the minimal inhibitory concentration (MIC) against S. aureus ATCC 13709 was determined as 8 µg/mL (≈ 19.6 µM); in the test with E. coli ATCC 25922 it was 32 µg/mL (≈ 78.5 µM).

Consider `CCOC(=O)C1CN(c2nc(Oc3cnc(C)nc3)nc3[nH]c4c(NC)cc(F)cc4c23)CC1N` (centres unmarked) [4.140], for which the “MIC Sa” value in the test with S. aureus ATCC 13709 is not above 0.5 µg/mL. The “MIC Ec” value against E. coli ATCC 25922 stood at 2 µg/mL (≈ 4.16 µM).

Consider `CNc1cc(F)cc2c1[nH]c1nc(Oc3cnc(N(C)C)nc3)nc(N3CC4C(N)C4C3)c12` (centres unmarked) [4.208], for which the MIC against S. aureus ATCC 13709 and against E. coli ATCC 25922 was not above 0.5 µg/mL each time.

For `CNc1ncc(Oc2nc(N3CC4CC(N)C4C3)c3c(n2)[nH]c2c(NC)cc(F)cc23)cn1` (centres unmarked) [4.221], the MIC in the test on S. aureus ATCC 13709 is not above 0.5 µg/mL; with E. coli ATCC 25922 it was 2 µg/mL (≈ 4.45 µM).

For the compound `CNc1cc(F)cc2c1[nH]c1nc(Oc3cnc(S(C)(=O)=O)nc3)nc(N3CC4C(N)CC4(C)C3)c12` (centres unmarked) [4.385], the “MIC Sa” value in the test on S. aureus ATCC 13709 was not above 0.5 µg/mL. Also, the “MIC Ec” value against E. coli ATCC 25922 is not above 0.5 µg/mL.

As for `CNc1cc(F)cc2c1[nH]c1nc(Oc3cnc(C)nc3)nc(N3CC4CCC(N)CC4C3)c12` (centres unmarked) [4.093], in the test with S. aureus ATCC 13709, the “MIC Sa” value is not above 0.5 µg/mL. The “MIC Ec” value in the test on E. coli ATCC 25922 came to 4 µg/mL (≈ 8.65 µM).

As for `CNc1cc(F)cc2c1[nH]c1nc(Oc3cnc(C)nc3)nc(N3CCC4(CNC4)C3)c12` [4.125], in the test with S. aureus ATCC 13709, the “MIC Sa” value was not above 0.5 µg/mL. Besides, in the test on E. coli ATCC 25922, the “MIC Ec” value stood at 4 µg/mL (≈ 9.21 µM).

Take `CNc1cc(F)cc2c1[nH]c1nc(Oc3cncc(C(N)=O)c3)nc(N3CC4C(N)C4C3)c12` (centres unmarked) [4.237]: the MIC against S. aureus ATCC 13709 is not above 0.5 µg/mL; against E. coli ATCC 25922, 2 µg/mL (≈ 4.46 µM).

As to `CNc1cccc2c1[nH]c1nc(Sc3cnc4cccnc4c3)nc(N3CC4C(N)C4C3)c12` (centres unmarked) [1.24], the “MIC Sa” value against S. aureus ATCC 13709 was not above 0.5 µg/mL. Besides, the “MIC Ec” value against E. coli ATCC 25922 amounted to 1 µg/mL (≈ 2.2 µM).

`CNc1cc(F)cc2c1[nH]c1nc(Oc3cnc(C)nc3)nc(C3=CCNCC3)c12` [4.162]: the “MIC Sa” value against S. aureus ATCC 13709 stood at 8 µg/mL (≈ 19.7 µM). Besides, in the test with E. coli ATCC 25922, the “MIC Ec” value was more than 16 µg/mL.

For the compound `CNc1cc(F)cc2c1[nH]c1nc(Oc3cnc(OC)nc3)nc(N3C[C@H](N)C4(CC4)C3)c12` [4.433], the MIC in the test with S. aureus ATCC 13709 and against E. coli ATCC 25922 was not above 0.5 µg/mL in each case.

Turning to `CNc1cccc2c1[nH]c1nc(Oc3cncc(F)c3)nc(N3C[C@@H](N)C4(CC4)C3)c12` [3.51], the MIC against S. aureus ATCC 13709 came out at 8 µg/mL (≈ 19.1 µM); with E. coli ATCC 25922, 32 µg/mL (≈ 76.3 µM).
